Values after ≈ are worked out from the molar mass of the structure shown. Values joined by “and” are separate entries in the source; they are usually repeats but may differ in a detail not shown here. Equal values may be shown once. “Also recorded” adds a separate entry of the source. Read-outs that look alike come from different tables or passages of the source.
Columns and labels:
C. neoformans [1] = assay: In vitro killing assay (time-kill, CFU); format: cell-based, Cryptococcus neoformans
Experimental: At the illustrated time points, aliquots were taken and diluted and 100 μL was plated onto yeast peptone dextrose (YPD) plates. YPD plates were incubated in a 30° C. incubator and, after 72 hours, colony forming units (CFU) were counted and recorded.

Aspergillus fumigatus = assay: In vitro susceptibility testing (MIC); format: cell-based
Histoplasma capsulatum = format: cell-based
L2 cell line = assay: In vitro toxicity; format: cell-based
Candida glabrata = assay: In vitro susceptibility testing (MIC); format: cell-based
Sld8 = assay: In vitro Sld8 activity; format: biochemical, C. neoformans
C. neoformans H99 = assay: Animal studies for cryptococcosis (intranasal infection); format: in vivo, mice
[2] = In vivo toxicity in uninfected mice
P. aeruginosa PA14 = assay: Antibacterial activity, LB agar well diffusion; settings: up to 160 μg/mL, 30° C., 24 hr
[3] = test system: C. neoformans sphingolipids; assay: Sphingolipid levels by TLC and lipid mass spectrometry; format: cell-based, Cryptococcus neoformans
Experimental: Labeling fungal cells. […] Samples without drug were included as control. Before lipid extraction, lipid internal standards (C17 ceramide and C17 sphingosine) were added. Lipids were then extracted following the methods of […] and Bligh and Dyer and one fourth of the sample was aliquoted for determination of the inorganic phosphate. The remainder of the sample was subjected to base hydrolysis and then analyzed using LC/MS. Results were normalized with the inorganic phosphate levels.

C. neoformans [4] = assay: Resistance assay, daily passages in sub-MIC drug; settings: 15 days of passages below the MIC
[5] = test system: synthesis of GlcCer in C. albicans cells; assay: GlcCer synthesis in C. albicans; format: cell-based, Candida albicans
Coccidioides spp = assay: microbe, parasite or virus in culture; format: cell-based; settings: for BHBM 48 Hr 50%: MIC, FTL strains
[6] = test system: synthesis of GlcCer in C. neoformans cells; assay: In vivo labeling with 3H palmitate, TLC of GlcCer; settings: 3H palmitate labeling
[7] = test system: intracellular C. neoformans; assay: Intracellular effect in J774.16 macrophages; format: cell-based, Cryptococcus neoformans; settings: dose-dependent, particularly after 12 and 24 hours
Experimental: After 2 hours of incubation, about 60-80% of macrophages have at least one C. neoformans cell internalized. At this time, wells were washed to remove extracellular fungal cells and fresh DMEM medium without serum and without mAb 18B7 but containing different concentrations of BHBM was added. […] At selected time points, 0, 6, 12 and 24 hours, extracellular cells were collected by washing and plated onto YPD for CFU counting of extracellular cells. Then, macrophages containing C. neofromans were lysed, collected and serial dilutions were plated onto YPD for CFU counting of intracellular fungal cells.

Gcs1 = Gcs1 (Cryptococcus neoformans, UniProt J9W453); assay: In vitro Gcs1 activity in cell lysate
Gcs1, sequence (J9W453 whole entry): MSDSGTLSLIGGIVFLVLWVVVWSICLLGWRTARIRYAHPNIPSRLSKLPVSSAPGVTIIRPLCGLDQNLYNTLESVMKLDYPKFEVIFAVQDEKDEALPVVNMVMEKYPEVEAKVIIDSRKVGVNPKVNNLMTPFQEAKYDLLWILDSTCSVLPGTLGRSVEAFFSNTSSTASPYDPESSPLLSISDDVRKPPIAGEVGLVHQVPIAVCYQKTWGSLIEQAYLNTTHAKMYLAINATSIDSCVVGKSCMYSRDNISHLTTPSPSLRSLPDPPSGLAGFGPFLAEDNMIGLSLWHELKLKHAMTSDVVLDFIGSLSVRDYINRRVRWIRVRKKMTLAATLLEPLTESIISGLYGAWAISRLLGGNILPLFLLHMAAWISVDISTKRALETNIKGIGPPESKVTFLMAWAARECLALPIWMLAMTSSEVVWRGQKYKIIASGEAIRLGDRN

Pharmacokinetics of BHBM = format: in vivo, mice
Experimental: The mice from each group were sacrificed and blood samples were collected at pre-dose and 0.5, 1, 2, 4, 8, 12, and 24 post-administration into K2EDTA containing tubes. The samples were centrifuged immediately and plasma was collected and stored at −80° C. until analysis. Plasma samples were extracted using methylene chloride. […] After mixing, 1 ml of methylene chloride was added and the samples were vortex mixed for 30 seconds followed by centrifugation for 5 minutes. […] The residue was reconstituted in 100 μL acetonitrile: water (50:50) solution, mixed and transferred to mass spec vials. […] The mobile phase consisted of water: acetonitrile with 0.1% formic acid (50:50) ran at a flow rate of 200 μL/min. Aliquots of 5 μL were analyzed using LTQ-FT liquid chromatography/tandem mass spectrometer (LC/MS/MS) with electrospray source in the positive ion mode (ThermoFisher Scientific, Waltham, Mass.). The retention time of BHBM was 5.7 mins. The lower limit of quantification (LLOQ) was 10 ng/ml. Systemic exposure of BHBM in mice was quantified by calculating the AUC of the drug from pre-dose to the end of the dosing interval (AUC0-t) using the linear trapezoidal rule by non-compartmental analysis employing Phoenix winNonlin 6.3 (Pharsight Corp, Mountain View, Calif.). The elimination half-life (t1/2) was calculated as 0.693/λz, where λz is the terminal elimination rate constant. Bioavailability of IP route was calculated.

Rhizopus oryzae = assay: In vitro susceptibility testing (MIC); format: cell-based
Cryptococcus gattii = assay: In vitro susceptibility testing (MIC); format: cell-based
A549 cell line = assay: In vitro toxicity; format: cell-based
[8] = TLC, confirmed by mass spectrometry
[9] = C3H/HeN, mouse, in vivo, ip, 0.8 mg/kg
[10] = C3H/HeN, mouse, in vivo, ip, 1.6 mg/kg

Q: For `Cc1ccccc1C(=O)NN=Cc1ccc(O)c(Br)c1` [BHBM, N′-(3-bromo-4-hydroxybenzylidene)-2-methylbenzohydrazide], which “incubation required to kill about 50% of the cells” value (C. neoformans [1]) is on record?
A: at least 72 hours

Q: And the type of killing (C. neoformans [1]; time-kill assay)?
A: concentration-dependent killing

Q: And the “improvement in survival, low dose vs vehicle treated negative controls” value (P. murina; 0.8 mg/Kg/twice a day, 13 days)?
A: the difference was not significant

Q: And the “survival, low dose vs high dose” value (P. murina; 0.8 or 1.6 mg/Kg/twice a day, 13 days)?
A: low dose mice showed improved survival over the high dose mice

Q: And the “number of asci and nuclei in lung homogenates vs negative control” value (P. murina; 13 days of treatment)?
A: No significant differences

Q: What about the MIC range (Aspergillus fumigatus; 1 MDP Lab strain) of the same molecule?
A: 8 µg/mL (≈ 24 µM)

Q: What about the MIC range (Aspergillus fumigatus; 3 Fungus Testing Lab strains) of the same molecule?
A: >16 µg/mL

Q: And the MIC (Aspergillus fumigatus; Aspergillus fumigatus, read-out: MIC (moderately active))?
A: 8 to 16 µg/mL (≈ 24 to 48 µM)

Q: What about the “in vitro activity” value (Histoplasma capsulatum) of the same molecule?
A: good in vitro activity

Q: What about the MIC range (Histoplasma capsulatum; 10 Fungus Testing Lab strains) of the same molecule?
A: 0.125 to 1 µg/mL

Q: What about the toxicity (L2 cell line) of the same molecule?
A: slight to moderate toxicity

Q: What about the MIC range (Candida glabrata; 10 Fungus Testing Lab strains) of the same molecule?
A: 0.125 to 2 µg/mL

Q: And the MIC (Candida glabrata; Nakaseomyces glabratus, read-out: MIC (moderately active))?
A: 8 to 16 µg/mL (≈ 24 to 48 µM)

Q: What about the “in vitro activity of Sld8” value (Sld8) of the same molecule?
A: does not inhibit

Q: What about the mice surviving infection (C. neoformans H99; 1.2 mg/Kg/day intraperitoneally, up to 60 days) of the same molecule?
A: 90%

Q: What about the “fungal burden in brain” value (C. neoformans H99; 1.2 mg/Kg/day, day 60) of the same molecule?
A: No C. neoformans cells were found in brains

Q: What about the “fungal burden in lung” value (C. neoformans H99; 1.2 mg/Kg/day, day 60, compared to infected untreated mice) of the same molecule?
A: decrease the fungal burden in the lung

Q: And the brain histology (C. neoformans H99; day 60)?
A: no fungal cells and normal structure

Q: And the lung histology (C. neoformans H99; day 60)?
A: granulomatous response limited in few areas of the lung

Q: And the “liver Aspartate aminotransferase (AST)” value ([2]; 1.2 mg/kg/day intraperitoneally for 60 days)?
A: 125±75 U/L

Q: What about the “other blood parameters for liver and kidney function” value ([2]; 60 days) of the same molecule?
A: normal

Q: And the “histological analysis of organs vs untreated uninfected mice” value ([2]; lungs, brains, kidney, spleen, liver, 60 days)?
A: no difference

Q: What about the “appearance, weight, physical activity and behavior” value ([2]; treated daily for 60 days) of the same molecule?
A: appeared normal

Q: And the zone of inhibition (P. aeruginosa PA14)?
A: No zone of inhibition

Q: What about the sphingosine-1-phosphate level ([3]; TLC) of the same molecule?
A: increased

Q: And the GlcCer level [3, 8]?
A: decreased

Q: And the dihydroceramide level [3, 8]?
A: increased

Q: And the sphingosine level [3, 8]?
A: increased; also recorded: accumulation of sphingosines

Q: And the “level of IPC” value ([3]; data not shown)?
A: does not decrease the level of IPC

Q: And the development of resistance (C. neoformans [4])?
A: do not develop resistance

Q: And the “synthesis of GlcCer” value [5]?
A: inhibited in a dose dependent manner

Q: And the MIC range (Coccidioides spp; 10 Fungus Testing Lab strains)?
A: 8 to 16 µg/mL

Q: What about the MIC (Coccidioides spp; Coccidioides, read-out: MIC (moderately active)) of the same molecule?
A: 8 to 16 µg/mL (≈ 24 to 48 µM)

Q: What about the “BHBM 48 Hr 50%” value (Coccidioides spp) of the same molecule?
A: 16 and 8 and >16

Q: And the “BHBM 48 Hr 50%” value (Coccidioides spp; first listing r7-r78)?
A: 8 and 16

Q: And the “inhibition of the synthesis of GlcCer” value [6]?
A: significantly inhibit the synthesis of GlcCer

Q: And the “intracellular replication of C. neoformans” value [7]?
A: significantly decrease the intracellular replication

Q: And the “in vitro activity of Gcs1” value (Gcs1)?
A: does not inhibit

Q: And the bioavailability (Pharmacokinetics of BHBM; [9])?
A: 93.6%

Q: And the half-life (Pharmacokinetics of BHBM; [9])?
A: 0.79 h

Q: What about the bioavailability (Pharmacokinetics of BHBM; [10]) of the same molecule?
A: 100.33%

Q: What about the half-life (Pharmacokinetics of BHBM; [10]) of the same molecule?
A: 0.84 h

Q: What about the half-life (Pharmacokinetics of BHBM; C3H/HeN, mouse, in vivo, iv, 1.6 mg/kg) of the same molecule?
A: 1.24 h

Q: What about the bioavailability (Pharmacokinetics of BHBM; C3H/HeN, mouse, plasma, 0.8 mg/kg, immunocompetent mice, IP low dose, read-out: bioavailability) of the same molecule?
A: 93.6%

Q: And the half-life (Pharmacokinetics of BHBM; C3H/HeN, mouse, plasma, intraperitoneal, 1.6 mg/kg)?
A: ~1.4 h

Q: And the “systemic exposure (AUC0-t and Cmax)” value (Pharmacokinetics of BHBM; IP administration, compared to normal group)?
A: higher in immunosuppressed/infected group

Q: What about the bioavailability (Pharmacokinetics of BHBM; immunocompetent mice, IP high dose) of the same molecule?
A: 90.59%

Q: What about the half-life (Pharmacokinetics of BHBM; immunocompetent mice, IP high dose (1.6 mg/kg)) of the same molecule?
A: 1.43 h

Q: What about the half-life (Pharmacokinetics of BHBM; immunocompetent mice, IP low dose (0.8 mg/kg)) of the same molecule?
A: 1.70 h

Q: What about the half-life (Pharmacokinetics of BHBM; immunocompetent mice, IV high dose (1.6 mg/kg)) of the same molecule?
A: 1.03 h

Q: What about the “in vitro activity” value (Rhizopus oryzae) of the same molecule?
A: good in vitro activity

Q: What about the MIC range (Rhizopus oryzae; 3 Fungus Testing Lab strains) of the same molecule?
A: 2 µg/mL (≈ 6 µM)

Q: What about the “in vitro activity” value (Cryptococcus gattii) of the same molecule?
A: good in vitro activity

Q: And the MIC range (Cryptococcus gattii; 3 MDP Lab strains)?
A: 0.5 to 1 µg/mL

Q: What about the MIC range (Cryptococcus gattii; 10 Fungus Testing Lab strains) of the same molecule?
A: 0.5 to 2 µg/mL

Q: And the “BHBM 72 Hr 50%” value (Cryptococcus gattii; MIC, FTL strains)?
A: 16 and >16 and 8

Q: What about the toxicity (A549 cell line) of the same molecule?
A: slight to moderate toxicity
